The text below walks through data of paper PMC6753678, “Fueling Open Innovation for Malaria Transmission-Blocking Drugs: Hundreds of Molecules Targeting Early Parasite Mosquito Stages” (Frontiers in Microbiology, 2019).

Series [1] concerns HepG2 cells. The series can be described thus: HepG2 cytotoxicity assay. The conditions noted are these: HepG2 cytotoxicity unified across screens; >25 set to 25.00. In short, it runs like this:
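Here viability after a 48 h compound incubation (37°C, humidified 5% CO2) is measured by fluorescence and expressed as percent inhibition, with doxorubicin at 50 μM and DMSO as the bounding controls.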

Series [2] deals with P. falciparum late stage (stages IV-V) gametocytes. Details: method as in Almela et al 2016. The note with it: P. falciparum late stage gametocyte ATP assay, TCAMS screen; ref Almela et al 2016; read-out: Pf GCT ATP IC50; cited from earlier work.
Series [3] shares this test system. The series can be described thus: P. falciparum late stage gametocyte ATP depletion assay (Pf GC-ATP). The conditions noted are these: 1: YES; 0: NO; >10-fold selectivity over cytotoxicity.

Broadly, the IC50 is the midpoint of a concentration-inhibition curve. Compound `COc1ccc(-c2cnn3ccc(Nc4cc(OC)c(OC)c(OC)c4)nc23)cc1OC` [TCMDC-134383] registered a Unified cytotox in series [1] of 12.90 µM. Besides, the IC50 in series [2] is 1620 nM. Moreover, in series [3], the “Is compound selective in assay? Pf GC-ATP active?” value (from here on “Is compound selective”) was 0 (0: NO).

Compound `CC(C)CNCc1cccc(-c2cccc(CN(CCCN3CCN(C)CC3)C(=O)CCC3CCCC3)c2)c1.O=C(O)C(F)(F)F` [TCMDC-140554] registered a Unified cytotox in series [1] of 4.55 µM. For the same compound, the IC50 in series [2] is 600 nM. Moreover, the “Is compound selective” value in series [3] is on record as 0 (0: NO).

In series [1], `CCN(Cc1ccc(-c2ccc(C(F)(F)F)cc2)cc1)C(=O)Cn1c(SCc2cccc(F)c2F)cc(=O)c2cc(CN3CCCCC3)ccc21.Cl` [TCMDC-141592] registered a Unified cytotox of 4.20 µM. In series [2], the IC50 was 2340 nM. Also, in series [3], the “Is compound selective” value is given as 0 (0: NO).

Regarding `COc1cc2ccccc2cc1OCCCN1CCN(CC(c2ccc(F)cc2)N2CCN(C(C)C)CC2)CC1.Cl` (stereo not drawn) [TCMDC-135496], the Unified cytotox in series [1] is listed as 3.72 µM. In series [2], the IC50 was 1250 nM. Further, the “Is compound selective” value in series [3] was 0 (0: NO).

`O=C(NCCc1ccccc1)N(Cc1cccc(-c2ccc(CNC3CCCC3)cc2)c1)C1CCN(Cc2ccccc2)CC1.O=C(O)C(F)(F)F` [TCMDC-140618] had a Unified cytotox in series [1] of 7.42 µM. The IC50 in series [2] is 1310 nM. The “Is compound selective” value in series [3] was 0 (0: NO).

`CCN(CC)CCOc1ccc(C(O)(C#CC(O)(c2ccc(OCCN(CC)CC)cc2)c2ccc([N+](=O)[O-])cc2)c2ccc([N+](=O)[O-])cc2)cc1` (stereo not drawn) [TCMDC-137201]: in series [1], the Unified cytotox is listed as 6.20 µM. In series [2], the IC50 was 220 nM. In addition, the “Is compound selective” value in series [3] is given as 1 (1: YES).

As to `Cl.N=C(NCCCc1ccccc1)c1cccc(C(=N)NCCCc2ccccc2)n1` [TCMDC-137453], the Unified cytotox in series [1] came to 12.80 µM. Also, in series [2], the IC50 is 310 nM. The “Is compound selective” value in series [3] is recorded as 1 (1: YES).

In series [1], `CN(C)CCCn1c(N)c(-c2nc3ccccc3[nH]2)c2nc(C#N)c(C#N)nc21` [TCMDC-123729] returned a Unified cytotox of 6.93 µM. Also, the IC50 in series [2] is 200 nM. Further, the “Is compound selective” value in series [3] was 1 (1: YES).

For the compound `O=C(O)C(F)(F)F.c1cc(CNCCN2CCNCC2)cc(-c2cccc(-c3nc4ccccc4[nH]3)c2)c1` [TCMDC-132859], the Unified cytotox in series [1] came to 19.30 µM. Moreover, in series [2], the IC50 is 710 nM. Also, the “Is compound selective” value in series [3] was 1 (1: YES).

In series [1], `Br.c1cc(C2=NC3CCCCC3N2)ccc1OCCCCCOc1ccc(C2=NC3CCCCC3N2)cc1` (stereo not drawn) [TCMDC-137802] yielded a Unified cytotox of 3.74 µM. Also, in series [2], the IC50 is 280 nM. In addition, the “Is compound selective” value in series [3] was 1 (1: YES).

In the case of `COc1cccc(CCc2c(CCNCCCCCCNCCc3ccccc3)ccc(OC)c2OC)c1.Cl` [TCMDC-132105], the Unified cytotox in series [1] was 7.70 µM. In addition, the IC50 in series [2] is 180 nM. Moreover, in series [3], the “Is compound selective” value is recorded as 1 (1: YES).

In the case of `CC(C)CNCc1cccc(-c2cccc(CN(CCCN3CCN(C)CC3)C(=O)NC3CCCCC3)c2)c1.O=C(O)C(F)(F)F` [TCMDC-140633], the Unified cytotox in series [1] stood at 16.75 µM. The IC50 in series [2] is 1780 nM. Besides, the “Is compound selective” value in series [3] is recorded as 0 (0: NO).

In turn, `CC(C)CNCc1ccc(-c2ccc(CN(CCCN3CCN(C)CC3)C(=O)/C=C/c3ccccc3)cc2)cc1.O=C(O)C(F)(F)F` [TCMDC-140546] gave a Unified cytotox in series [1] of 6.99 µM. Also, in series [2], the IC50 is 1000 nM. Besides, the “Is compound selective” value in series [3] is 0 (0: NO).

For `Fc1ccc2[nH]c(-c3cccc(-c4ccc(CNCCN5CCNCC5)cc4)c3)nc2c1.O=C(O)C(F)(F)F` [TCMDC-132863], the Unified cytotox in series [1] worked out at 24.16 µM. In addition, in series [2], the IC50 is 1450 nM. Also, the “Is compound selective” value in series [3] is listed as 1 (1: YES).

Regarding `CCCCN(CCCC)CCCCNc1c2ccccc2nc2ccccc12.Cl` [TCMDC-137461], in series [1], the Unified cytotox was 19.00 µM. The IC50 in series [2] was 550 nM. The “Is compound selective” value in series [3] was 1 (1: YES).

For the compound `O=C(O)C(F)(F)F.c1cc(CN2CCC(CCN3CCCCC3)CC2)cc(-c2cccc(-c3nc4ccccc4[nH]3)c2)c1` [TCMDC-133920], the Unified cytotox in series [1] worked out at 13.10 µM. Moreover, the IC50 in series [2] is 290 nM. Besides, in series [3], the “Is compound selective” value is listed as 1 (1: YES).

Compound `Cc1cc(-c2cccc(CNC3CCCC3)c2)ccc1S(=O)(=O)NCCN1CCCC1.O=C(O)C(F)(F)F` [TCMDC-132279] displayed a Unified cytotox in series [1] of 7.50 µM. Also, in series [2], the IC50 is 1240 nM. Besides, in series [3], the “Is compound selective” value is recorded as 0 (0: NO).

For `CC(CCCC(=O)Nc1ccc(CC(C)NCCc2cccc(Cl)c2)cc1)NCCc1cccc(Cl)c1` (stereo not drawn) [TCMDC-139798], the Unified cytotox in series [1] turned out to be 4.50 µM. The IC50 in series [2] was 820 nM. In addition, the “Is compound selective” value in series [3] is given as 0 (0: NO).

Turning to `CCCCCCCN1CC[C@@H](CCCc2ccnc3ccc(OCCCCN/C(N)=N/O)cc23)[C@@H](CC)C1.O=C(O)C(=O)O` [TCMDC-139839], the Unified cytotox in series [1] turned out to be 17.20 µM. For the same compound, the IC50 in series [2] is 470 nM. For the same compound, the “Is compound selective” value in series [3] is recorded as 1 (1: YES).

Regarding `Cc1cccc2nc(-c3ccc(-c4ccc(CN5CCC(CCN6CCCCC6)CC5)cc4)cc3)[nH]c12.O=C(O)C(F)(F)F` [TCMDC-133929], in series [1], the Unified cytotox is 3.70 µM. The IC50 in series [2] was 270 nM. The “Is compound selective” value in series [3] is listed as 1 (1: YES).

`CC(C)CNCc1ccc(-c2cccc(CN(CCN(C)C)C(=O)CCC3CCCC3)c2)cc1.O=C(O)C(F)(F)F` [TCMDC-140553] returned a Unified cytotox in series [1] of 5.50 µM. In series [2], the 50% inhibitory concentration (IC50) was 540 nM. The “Is compound selective” value in series [3] was 1 (1: YES).

In series [1], `COc1cc(NCC(C)CNCc2cn(Cc3ccccc3)c3ccccc23)nc2ccccc12` (stereo not drawn) [TCMDC-140496] registered a Unified cytotox of 5.00 µM. Besides, in series [2], the IC50 is 1710 nM. In series [3], the “Is compound selective” value is on record as 0 (0: NO).

For the compound `NC1CCN(Cc2ccc(-c3ccc(-c4nc5cc(F)ccc5[nH]4)cc3)cc2)C1.O=C(O)C(F)(F)F` (stereo not drawn) [TCMDC-133872], in series [1], the Unified cytotox was 7.25 µM. For the same compound, the IC50 in series [2] is 830 nM. Besides, the “Is compound selective” value in series [3] was 0 (0: NO).

In turn, `O=C(/C=C/c1ccc(Cl)c(Cl)c1)NCCCCCN1CCCC(CNS(=O)(=O)c2cccc(C(F)(F)F)c2)C1` (stereo not drawn) [TCMDC-139597] showed a Unified cytotox in series [1] of 3.80 µM. Also, the IC50 in series [2] was 8630 nM. In series [3], the “Is compound selective” value is given as 0 (0: NO).

Compound `COc1cc(CCNC(=N)/C=C/c2ccc(Cl)cc2)ccc1Cl.Cl` [TCMDC-137457] gave a Unified cytotox in series [1] of 14.00 µM. Further, the IC50 in series [2] was 280 nM. For the same compound, in series [3], the “Is compound selective” value was 1 (1: YES).

With `COc1ccc2nc3cc(Cl)ccc3c(NCCCCN3CCNCC3)c2c1.Cl` [TCMDC-137578], in series [1], the Unified cytotox was 5.00 µM. For the same compound, the IC50 in series [2] is 660 nM. For the same compound, in series [3], the “Is compound selective” value is 0 (0: NO).

Regarding `CCCCCCCN1CC[C@@H](CCCc2ccnc3ccc(OCC4CCCNC4)cc23)[C@@H](CC)C1.Cl` (stereo partly drawn) [TCMDC-139816], the Unified cytotox in series [1] worked out at 4.18 µM. Further, the IC50 in series [2] was 300 nM. Also, the “Is compound selective” value in series [3] is listed as 1 (1: YES).

As for `CCN(CC)CCOc1ccc(C(O)(C#CC(O)(c2ccccc2)c2ccc(OCCN(CC)CC)cc2)c2ccccc2)cc1` (stereo not drawn) [TCMDC-137197], in series [1], the Unified cytotox turned out to be 3.67 µM. In addition, the IC50 in series [2] is 690 nM. Further, in series [3], the “Is compound selective” value is listed as 0 (0: NO).

In turn, `COc1cc(NC(=O)c2sc(-c3ccc(Cl)cc3)cc2NC(=O)c2ccncc2)ccc1OCCN1CCCC1` [TCMDC-135398] yielded a Unified cytotox in series [1] of 3.23 µM. In addition, the IC50 in series [2] was 150 nM. In addition, the “Is compound selective” value in series [3] was 1 (1: YES).

For the compound `COc1cc(Br)c(S(=O)(=O)n2cc(CN3CCC(N)CC3)c3cc(Cl)ccc32)cc1OC.O=C(O)C(F)(F)F` [TCMDC-136384], the Unified cytotox in series [1] is 6.70 µM. In series [2], the concentration for half-maximal inhibition (IC50) is 2420 nM. In addition, the “Is compound selective” value in series [3] is 0 (0: NO).

For `COc1ccc2c(=NN=Cc3ccc(OC)c4ccccc34)cc(C)[nH]c2c1` [TCMDC-142218], the Unified cytotox in series [1] is 7.86 µM. The IC50 in series [2] is 770 nM. Moreover, the “Is compound selective” value in series [3] is given as 1 (1: YES).

Regarding `O=C(O)C(F)(F)F.O=S(=O)(NCCN1CCCC1)c1cccc(-c2ccc(CNCc3ccc(F)cc3)cc2)c1` [TCMDC-132289], the Unified cytotox in series [1] was found to be 7.40 µM. For the same compound, the IC50 in series [2] is 2690 nM. Besides, in series [3], the “Is compound selective” value is recorded as 0 (0: NO).

Take `Cl.c1ccc(CN2CCN(CCCCNc3c4ccccc4nc4ccccc34)CC2)cc1` [TCMDC-138009]: in series [1], the Unified cytotox is reported as 9.92 µM. For the same compound, the IC50 in series [2] is 790 nM. In series [3], the “Is compound selective” value is recorded as 1 (1: YES).

`Cc1cccc2[nH]cc(C3CCN(CC4CCC(NC(=O)/C=C/c5ccc(Cl)c(Cl)c5)CC4)CC3)c12.Cl` (stereo not drawn) [TCMDC-140137]: the Unified cytotox in series [1] is given as 2.95 µM. Also, in series [2], the IC50 was 1450 nM. The “Is compound selective” value in series [3] is 0 (0: NO).

Regarding `COc1ccccc1CCNc1nc(C)cc(N[C@@H](Cc2ccccc2)C(=O)NCc2cccc(F)c2)n1.O=C(O)C(F)(F)F` [TCMDC-134893], the Unified cytotox in series [1] was 6.30 µM. Also, the IC50 in series [2] is 5300 nM. Besides, the “Is compound selective” value in series [3] is 0 (0: NO).
